From patent US20090075320A1, “Method for screening an enhancer or a masker of salty taste” (priority 2006, published 2009)

Target: T1, hENaC channel (Homo sapiens, UniProt P37088+P51168+P51170, A314G/A350T/D375G/F339S/S458R/Y369S)
T1 sequence (P37088 1-669): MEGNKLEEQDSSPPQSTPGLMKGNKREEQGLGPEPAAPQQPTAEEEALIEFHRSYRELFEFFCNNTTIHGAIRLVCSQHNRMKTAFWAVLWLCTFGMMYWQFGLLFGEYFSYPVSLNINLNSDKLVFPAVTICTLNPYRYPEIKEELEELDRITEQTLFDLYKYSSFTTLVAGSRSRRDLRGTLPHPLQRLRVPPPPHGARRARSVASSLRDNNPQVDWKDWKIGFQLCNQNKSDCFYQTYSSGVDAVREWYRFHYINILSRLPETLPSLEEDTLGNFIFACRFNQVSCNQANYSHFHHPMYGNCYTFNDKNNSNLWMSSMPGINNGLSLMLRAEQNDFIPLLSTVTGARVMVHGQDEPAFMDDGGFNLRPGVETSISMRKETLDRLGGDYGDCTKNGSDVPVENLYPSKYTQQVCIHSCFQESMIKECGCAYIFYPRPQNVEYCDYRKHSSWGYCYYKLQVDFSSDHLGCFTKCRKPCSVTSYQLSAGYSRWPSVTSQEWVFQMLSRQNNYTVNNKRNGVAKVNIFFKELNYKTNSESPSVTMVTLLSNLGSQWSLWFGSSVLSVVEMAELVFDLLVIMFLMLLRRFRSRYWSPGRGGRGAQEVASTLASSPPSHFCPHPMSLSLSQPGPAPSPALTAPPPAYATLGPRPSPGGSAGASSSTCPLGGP
T1 sequence (P51168 1-640 A314G): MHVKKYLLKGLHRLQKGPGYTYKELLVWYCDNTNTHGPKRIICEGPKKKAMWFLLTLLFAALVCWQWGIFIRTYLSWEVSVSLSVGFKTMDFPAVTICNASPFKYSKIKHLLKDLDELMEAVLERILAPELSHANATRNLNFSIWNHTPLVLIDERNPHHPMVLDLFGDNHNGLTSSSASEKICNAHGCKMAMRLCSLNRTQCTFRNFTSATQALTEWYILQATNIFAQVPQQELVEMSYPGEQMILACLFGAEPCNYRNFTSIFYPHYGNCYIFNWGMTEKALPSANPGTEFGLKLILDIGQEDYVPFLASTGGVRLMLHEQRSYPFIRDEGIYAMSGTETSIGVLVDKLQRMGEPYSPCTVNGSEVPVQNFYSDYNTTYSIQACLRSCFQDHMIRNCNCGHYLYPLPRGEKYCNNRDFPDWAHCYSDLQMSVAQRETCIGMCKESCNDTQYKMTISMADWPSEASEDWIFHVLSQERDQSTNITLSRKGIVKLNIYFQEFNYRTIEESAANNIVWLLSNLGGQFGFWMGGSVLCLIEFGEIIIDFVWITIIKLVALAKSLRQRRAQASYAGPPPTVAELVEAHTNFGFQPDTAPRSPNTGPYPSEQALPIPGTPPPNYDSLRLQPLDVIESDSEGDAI
T1 sequence (P51170 1-649 F339S/A350T/Y369S/D375G/S458R): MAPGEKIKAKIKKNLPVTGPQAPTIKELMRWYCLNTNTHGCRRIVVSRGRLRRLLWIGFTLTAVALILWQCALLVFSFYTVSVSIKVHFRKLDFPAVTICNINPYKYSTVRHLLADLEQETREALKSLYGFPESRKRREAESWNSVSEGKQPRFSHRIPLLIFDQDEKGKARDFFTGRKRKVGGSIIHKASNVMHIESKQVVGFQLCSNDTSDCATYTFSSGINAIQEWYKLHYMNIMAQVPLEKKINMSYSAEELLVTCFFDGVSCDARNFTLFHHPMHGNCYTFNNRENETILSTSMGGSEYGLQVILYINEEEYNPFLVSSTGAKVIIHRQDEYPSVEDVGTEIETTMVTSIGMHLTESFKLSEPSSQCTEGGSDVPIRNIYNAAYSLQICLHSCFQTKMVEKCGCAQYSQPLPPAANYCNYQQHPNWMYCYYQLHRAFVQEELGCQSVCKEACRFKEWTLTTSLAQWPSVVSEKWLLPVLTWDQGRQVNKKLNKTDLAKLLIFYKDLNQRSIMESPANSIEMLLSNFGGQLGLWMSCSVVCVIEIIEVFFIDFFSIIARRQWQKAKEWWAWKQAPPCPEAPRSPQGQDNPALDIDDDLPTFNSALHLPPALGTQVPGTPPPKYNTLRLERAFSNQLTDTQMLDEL
Test: Primary screen MP assay (membrane potential dye): dose-response curves for inhibition by hENaC blockers
Type: cell-based
Settings: HEK293 Flp-In T-Rex hENaC cells (alpha, beta, gamma; pUR8191), loaded with MP-Blue dye for 1 hr, Flexstation; FIG. 4
Experimental: FIG. 4. Dose-response curve for different concentrations of the hENaC blockers amiloride, benzamil and phenamil (in M). Cells were loaded with MP-Blue dye for 1 hr and assayed in the Flexstation.
HEK293 Flp-In T-Rex hENaC cells were grown to about 80% confluency and dissociated from the culture dish with trypsin/EDTA for 1-5 minutes at 37° C. Dissociated cells were taken up in a concentration between 1×10^5 and 1×10^6 cells/ml in DMEM/Tet-free FCS/blasticidin/hygromycin medium. 100 μL of cells were added per well in a poly-L-lysine coated black well clear bottom 96-wells plate. The cells were grown overnight and then induced by addition of 100 μl DMEM/Tet-free FCS/blasticidin/hygromycin medium with doxycyclin (final conc. 0.25 μg/ml). Alternatively, in some wells amiloride was added to inhibit hENaC channel activity during induction.
After 20 to 48 hrs the medium was removed, cells were washed with buffer and subsequently loaded with MP-Blue (cat# R8042) or MP-Red (cat# R8123) dye (from Molecular Devices) according to the manufacturer's instructions for 1 hr at 37° C. The plates were subsequently loaded into the Flexstation II for fluorescence measurements. Compounds were added to the wells in different concentrations after a baseline measurement of 30 sec. […] The fluorescence values were normalized on the average value of the first five time points. […]

| Structure (SMILES) | inhibition of the hENaC channel (rank order from dose-response curves) |
| --- | --- |
| N=C(N)NC(=O)c1nc(Cl)c(N)nc1N [amiloride] | followed by benzamil and amiloride |
| NC(=Nc1ccccc1)NC(=O)c1nc(Cl)c(N)nc1N [phenamil] | the best compound for inhibition |
